The values that follow come from patent publication US20150360047A1, “Cosmetic Biophotonic Compositions” (KLOX TECHNOLOGIES INC., priority 2012, published 2015).

The nature of the series: Absorption/emission spectra and photobleaching of chromophores and chromophore combinations. It counts as physicochemical. As for the experimental part:
The photodynamic properties of (i) Fluorescein sodium salt at about 0.09 mg/mL, (ii) Eosin Y at about 0.305 mg/mL, and (iii) a mixture of Fluorescein sodium salt at about 0.09 mg/mL and Eosin Y at about 0.305 mg/mL, all in a gel (12% carbamide) were evaluated. A flexstation 384 II spectrophotometer was used to measure emitted fluorescence with the following parameters: mode fluorescence, excitation 460 nm, emission spectra 465-750 nm. The absorbance was read using a synergy HT microplate reader: mode absorbance; spectra between 300-650 nm. The absorption and emission spectra are shown in FIGS. 8A and 8B which indicate an energy transfer between the chromophores in the combination. It is to be reasonably inferred that this energy transfer can also occur in biophotonic compositions of the present disclosure. […]
The photodynamic properties of (i) Fluorescein sodium salt at 0.18 mg/mL final concentration, (ii) Eosin Y at about 0.305 mg/mL, and (iii) a mixture of Fluorescein sodium salt at about 0.18 mg/mL and Eosin Y at about 0.305 mg/mL in an aqueous solution were evaluated. A flexstation 384 II spectrophotometer was used to measure emitted fluorescence with the following parameters: mode fluorescence, excitation 460 nm, emission spectra 465-750 nm. The absorbance was read using a synergy HT microplate reader: mode absorbance; spectra between 300-650 nm. […]

SMILES strings stand for the structures.

Turning to `O=C([O-])c1ccccc1-c1c2cc(Br)c(=O)c(Br)c-2oc2c(Br)c([O-])c(Br)cc12.[Na+].[Na+]` [Eosin Y], the Photobleaching during illumination result is on record as “Photobleaching of Eosin Y was observed” (with Fluorescein in aqueous solution, Example 4) and “Photobleaching of Eosin Y was observed” (with Fluorescein in gel (12% carbamide), Example 3).
